Assay results: patent US12624044B2, “SMARCA degraders and uses thereof” (Kymera Therapeutics, Inc., priority 2019, dated 2026)

Tests used:
Type in all cases: cell-based
[1] = target: T1, SMARCA2 (Homo sapiens, UniProt P51531); assay: SMARCA2 Western blot MV4-11 degradation; details: 24 h; for Dmax: MV4-11, MV4-11 cells, read-out: SMARCA2 WB MV411 degradation 24 h: Average Dmax %; for DC50: MV4-11 cells, read-out: SMARCA2 WB MV411 degradation 24 h: Average external-Abs DC50
Description: Cells were seeded into 6-well plates (MV4-11: 4×10^6 cells/well/1 ml) and 1 ml of 2× compound solution was added into the well to make the final concentration and the plates were mixed well and incubated for 24 hours (No cytotoxicity was observed). The cell were collected with media and spun at 3000 rpm for 5 minutes. The supernatant was aspirated and the well and the cells were washed with cold PBS once and combined for centrifugation again; the supernatant aspirated again. 200 ul pre-chilled RIPAlysis buffer (Boston BioProducts BP-115D) with protease/phosphatase inhibitor (Roche 05892791001/Roche 04906837001) was directly added into the tube to lyze the cells for 20 minutes on ice. The cell lysate were collected into EP tubes and spun at 13000 rpm for 20 minutes and 72 ul supernatant was transferred to a fresh EP tube containing 18 ul of 5× loading buffer (Beyotime Bio P0015) to make the loading samples. The samples were heated to 100° C. for 10 minutes and cooled to RT and microcentrifuged. 20 ul of samples were loaded onto SDS-PAGE gel (Novex, WG1402BOX) and the gel was run at 80 V for 20 minutes and 120 V for 1.5 hours. The samples were electrotransfer to a NC membrane using wet-transfer method with 250 mA for 2.5 hours. The membrane was blocked with LICOR blocking buffer (LI-COR, 927-50000) for 1 hour. The membrane was washed three times with TBST (CST #9997S), 5 minutes each. Incubation was performed with primary antibody prepared in blocking buffer with 0.1% Tween-20 (Solarbio, P8220) at 4° C. overnight (Anti-SMARCA2/BRM antibody (ab15597) 1:500; Anti-BRG1 antibody [EPR3912] (ab108318) 1:1000; Rabbit anti-Baf180 antibody [EPR15860] (Abcam, ab196022) 1:1000; mouse anti-beta-Actin (8H10D10) (CST #3700) 1:10000). The membrane was washed three times with TBST, 5 minutes each. Incubation with secondary antibody was performed for 1 hour at RT (anti-rabbit IgG (Licor, 926-32211) 1:5000; anti-mouse IgG (LI-COR, 926-68070) 1:5000). The membrane was washed three times with TBST, 5 minutes each and lastly the LiCOR was read.
The letter codes for the percentage of SMARCA degradation after 24 hours (Dmax %) include: A (>90% degradation), B (>70-90% degradation), C (50-70% degradation), and D (<50% degradation).

[2] = target: T1, SMARCA2; assay: MSD SMARCA2 degradation in A549 cell line; details: 24 h; for Dmax: A549, A549 cells; for DC50: A549 cells, read-out: SMARCA2 MSD A549 degradation 24 h: Average external-Abs DC50
Summary of the method: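 A549 cells treated 24 h with compound at final 0.152-1000 nM (3-fold series, DMSO control). Lysates analyzed by MSD immunoassay using anti-SMARCA2/BRM detection and SULFO-TAG secondary antibodies; maximal degradation (Dmax %) reported as letter bins.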

[3] = target: T2, SMARCA4 (Homo sapiens, UniProt P51532); assay: SMARCA4 Western blot MV4-11 degradation; details: 24 h; for Dmax: MV4-11, MV4-11 cells, read-out: SMARCA4 WB MV411 degradation 24 h: Average Dmax %; for DC50: MV4-11 cells, read-out: SMARCA4 WB MV411 degradation 24 h: Average external-Abs DC50
T2 construct: SMARCA2 and SMARCA4 protein degradation in MV4-11 cells; endogenous in cells; host or cells: MV4-11
T2 sequence (P51532 whole entry): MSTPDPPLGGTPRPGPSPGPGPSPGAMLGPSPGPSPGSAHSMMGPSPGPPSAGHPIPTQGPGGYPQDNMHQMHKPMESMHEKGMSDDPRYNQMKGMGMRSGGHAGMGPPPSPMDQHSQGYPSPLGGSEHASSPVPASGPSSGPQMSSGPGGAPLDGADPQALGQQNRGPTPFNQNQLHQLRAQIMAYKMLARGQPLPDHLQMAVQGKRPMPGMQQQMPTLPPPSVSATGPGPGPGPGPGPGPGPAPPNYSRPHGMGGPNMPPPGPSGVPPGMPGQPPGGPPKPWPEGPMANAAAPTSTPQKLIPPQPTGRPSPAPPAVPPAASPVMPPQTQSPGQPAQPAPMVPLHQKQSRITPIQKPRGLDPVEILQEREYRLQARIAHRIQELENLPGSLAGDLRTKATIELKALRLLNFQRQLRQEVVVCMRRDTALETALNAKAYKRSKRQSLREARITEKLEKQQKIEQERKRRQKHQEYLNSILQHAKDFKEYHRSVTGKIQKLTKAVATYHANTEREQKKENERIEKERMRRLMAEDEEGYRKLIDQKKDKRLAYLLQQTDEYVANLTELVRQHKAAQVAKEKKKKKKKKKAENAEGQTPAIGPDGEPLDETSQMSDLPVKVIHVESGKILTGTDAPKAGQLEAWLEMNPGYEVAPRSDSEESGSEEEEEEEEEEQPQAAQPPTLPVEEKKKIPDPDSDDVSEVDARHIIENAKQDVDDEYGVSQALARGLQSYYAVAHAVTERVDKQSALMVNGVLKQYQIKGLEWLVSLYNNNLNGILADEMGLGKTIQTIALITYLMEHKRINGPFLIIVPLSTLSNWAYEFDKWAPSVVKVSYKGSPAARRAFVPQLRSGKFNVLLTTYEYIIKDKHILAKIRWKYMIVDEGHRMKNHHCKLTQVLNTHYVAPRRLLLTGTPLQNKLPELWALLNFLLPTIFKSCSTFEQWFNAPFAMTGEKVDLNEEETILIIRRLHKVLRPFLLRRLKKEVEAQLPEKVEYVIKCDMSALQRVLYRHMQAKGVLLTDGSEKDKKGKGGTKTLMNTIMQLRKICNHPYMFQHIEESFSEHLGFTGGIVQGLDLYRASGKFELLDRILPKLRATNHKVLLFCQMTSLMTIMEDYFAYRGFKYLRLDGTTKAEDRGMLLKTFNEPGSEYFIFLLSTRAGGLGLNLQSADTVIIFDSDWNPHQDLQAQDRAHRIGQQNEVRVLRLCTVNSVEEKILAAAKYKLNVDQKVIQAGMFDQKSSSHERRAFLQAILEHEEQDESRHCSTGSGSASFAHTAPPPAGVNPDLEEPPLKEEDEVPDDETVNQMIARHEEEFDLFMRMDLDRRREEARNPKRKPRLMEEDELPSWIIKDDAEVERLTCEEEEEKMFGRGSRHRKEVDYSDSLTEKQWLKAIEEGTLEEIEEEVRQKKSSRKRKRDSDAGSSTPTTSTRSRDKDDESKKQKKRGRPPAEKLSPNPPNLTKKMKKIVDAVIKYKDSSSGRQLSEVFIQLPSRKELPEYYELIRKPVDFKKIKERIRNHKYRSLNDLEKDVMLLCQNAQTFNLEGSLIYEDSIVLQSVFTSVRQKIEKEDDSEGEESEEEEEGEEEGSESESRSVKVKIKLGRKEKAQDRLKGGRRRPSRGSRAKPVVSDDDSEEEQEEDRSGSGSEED
Summary of the method: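 MV4-11 cells treated with compound for 24 h, lysed in RIPA with protease/phosphatase inhibitors, and SMARCA2 and SMARCA4 (BRG1) levels assessed by Western blot with β-actin loading control and LI-COR fluorescent read-out. Maximal degradation (Dmax %) after 24 h binned into letter codes.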

[4] = target: T1, SMARCA2; assay: MSD SMARCA2 degradation in NCI-H1299 cell line (24 h); design: HC: NCI-H1299 cells treated with DMSO; host or cells: NCI-H1299; details: for Dmax: NCI-H1299, NCI-H1299 cells; for DC50: NCI-H1299 cells, read-out: SMARCA2 MSD H1299 degradation 24 h: External Abs-DC50
Summary of the method: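 NCI-H1299 cells treated 24 h with a 3-fold, 9-point compound dilution series, then lysed in RIPA with protease inhibitor. SMARCA2 in lysate-coated MSD plates detected with rabbit anti-SMARCA2 (0.3 ug/ml) and SULFO-TAG secondary. Relative SMARCA2 level normalized between DMSO-treated H1299 cells and SMARCA2-negative A2780 cells; Dmax % binned A–D.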

T1 sequence (P51531 whole entry): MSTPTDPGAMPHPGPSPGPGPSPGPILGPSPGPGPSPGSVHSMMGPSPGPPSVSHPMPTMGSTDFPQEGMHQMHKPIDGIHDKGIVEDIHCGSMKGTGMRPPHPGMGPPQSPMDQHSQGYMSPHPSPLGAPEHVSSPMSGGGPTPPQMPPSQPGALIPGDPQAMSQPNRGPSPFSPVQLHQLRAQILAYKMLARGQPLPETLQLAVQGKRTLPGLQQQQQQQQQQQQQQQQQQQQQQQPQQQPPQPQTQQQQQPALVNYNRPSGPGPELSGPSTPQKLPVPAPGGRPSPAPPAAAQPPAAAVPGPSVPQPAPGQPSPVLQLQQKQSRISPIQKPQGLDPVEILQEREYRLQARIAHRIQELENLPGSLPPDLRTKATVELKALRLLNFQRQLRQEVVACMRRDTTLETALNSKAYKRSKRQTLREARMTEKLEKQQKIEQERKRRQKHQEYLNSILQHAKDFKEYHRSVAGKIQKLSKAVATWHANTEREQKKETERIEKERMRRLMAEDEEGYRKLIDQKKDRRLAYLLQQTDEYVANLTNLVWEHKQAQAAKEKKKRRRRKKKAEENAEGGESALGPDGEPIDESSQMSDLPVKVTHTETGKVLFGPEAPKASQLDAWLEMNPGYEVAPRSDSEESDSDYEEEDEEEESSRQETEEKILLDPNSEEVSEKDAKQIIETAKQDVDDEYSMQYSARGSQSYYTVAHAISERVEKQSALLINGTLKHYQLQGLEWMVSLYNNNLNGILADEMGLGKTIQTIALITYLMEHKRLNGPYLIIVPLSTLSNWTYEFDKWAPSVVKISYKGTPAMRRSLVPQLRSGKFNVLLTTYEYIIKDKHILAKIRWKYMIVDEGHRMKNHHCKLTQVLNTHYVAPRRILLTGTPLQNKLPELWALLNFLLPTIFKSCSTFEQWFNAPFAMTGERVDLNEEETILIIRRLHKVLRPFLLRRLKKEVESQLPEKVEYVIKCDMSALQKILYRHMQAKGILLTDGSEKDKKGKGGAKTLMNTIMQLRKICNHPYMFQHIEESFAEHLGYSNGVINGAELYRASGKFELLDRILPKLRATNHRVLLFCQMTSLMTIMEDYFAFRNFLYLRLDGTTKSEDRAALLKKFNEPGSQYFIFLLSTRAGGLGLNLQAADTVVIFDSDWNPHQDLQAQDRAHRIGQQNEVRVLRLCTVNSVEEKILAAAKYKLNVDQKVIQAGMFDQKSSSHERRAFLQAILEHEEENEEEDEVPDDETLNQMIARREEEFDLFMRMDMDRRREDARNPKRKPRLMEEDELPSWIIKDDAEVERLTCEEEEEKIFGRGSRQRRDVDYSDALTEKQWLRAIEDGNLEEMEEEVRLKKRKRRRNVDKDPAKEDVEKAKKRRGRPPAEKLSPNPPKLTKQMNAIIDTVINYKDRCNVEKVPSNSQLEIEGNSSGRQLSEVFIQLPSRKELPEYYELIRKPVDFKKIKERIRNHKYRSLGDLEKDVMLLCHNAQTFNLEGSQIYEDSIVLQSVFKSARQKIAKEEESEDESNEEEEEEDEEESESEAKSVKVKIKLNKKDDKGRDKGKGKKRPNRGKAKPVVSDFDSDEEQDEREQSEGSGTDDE

SMILES | Dmax [1] [%] | DC50 [1] [nM] | Dmax [2] [%] | DC50 [2] [nM] | Dmax [3] [%] | DC50 [3] [nM] | Dmax [4] [%] | DC50 [4] [nM]
Cc1ncsc1-c1ccc(CNC(=O)[C@@H]2C[C@@H](O)CN2C(=O)[C@@H](NC(=O)CN2CCN([C@H]3CC[C@@H](c4cnc(N5C6CCC5CN(c5cc(-c7ccccc7O)nnc5N)C6)nc4)CC3)CC2)C(C)(C)C)cc1 (single isomer, unassigned) [I-445] | > 90 | < 100 | > 90 | 100 to 500 | > 90 | < 100 |  | 
Cc1ncsc1-c1ccc(CNC(=O)[C@@H]2C[C@@H](O)CN2C(=O)[C@@H](NC(=O)CN2CCN([C@H]3CC[C@H](c4cnc(N5C6CCC5CN(c5cc(-c7ccccc7O)nnc5N)C6)nc4)CC3)CC2)C(C)(C)C)cc1 (single isomer, unassigned) [I-446, (2S,4R)-1-((2S)-2-(2-(4-((1r,4S)-4-(2-(3-(3-amino-6-(2-hydroxyphenyl)pyridazin-4-yl)-3,8-diazabicyclo[3.2.1]octan-8-yl)pyrimidin-5-yl)cyclohexyl)piperazin-1-yl)acetamido)-3,3-dimethylbutanoyl)-4-hydroxy-N-(4-(4-methylthiazol-5-yl)benzyl)pyrrolidine-2-carboxamide] | > 90 |  | > 90 |  | > 90 |  |  | 
Cc1ncsc1-c1ccc(CNC(=O)[C@@H]2C[C@@H](O)CN2C(=O)[C@@H](NC(=O)CN2CCN([C@H]3CC[C@H](c4cnc(N5C6CCC5CN(c5cc(-c7ccccc7O)nnc5N)C6)nc4)CC3)CC2)C(C)(C)C)cc1 (single isomer, unassigned) [I-446] |  | < 100 |  | < 100 |  | < 100 |  | 
Cn1c(=O)n(C2CCC(=O)NC2=O)c2ccc(C3CC4(C3)CC(N3CCC(c5cnc(N6C7CCC6CN(c6cc(-c8ccccc8O)nnc6N)C7)nc5)CC3)C4)cc21 (single isomer, unassigned) [I-536 (P1), 3-(5-(6-(4-(2-(3-(3-amino-6-(2-hydroxyphenyl)pyridazin-4-yl)-3,8-diazabicyclo[3.2.1]octan-8-yl)pyrimidin-5-yl)piperidin-1-yl)spiro[3.3]heptan-2-yl)-3-methyl-2-oxo-2,3-dihydro-1H-benzo[d]imidazol-1-yl)piperidine-2,6-dione] |  | < 100 |  | < 100 |  | < 100 |  | 
Cn1c(=O)n(C2CCC(=O)NC2=O)c2ccc([C@H]3CC[C@@H](N4CCC(c5cnc(N6C7CCC6CN(c6cc(-c8ccccc8O)nnc6N)C7)nc5)CC4)CC3)cc21 (stereo partly shown) [I-277] | > 90 | < 100 | > 90 | < 100 | > 90 | < 100 |  | 
Cn1c(=O)n(C2CCC(=O)NC2=O)c2ccc(CCCN3CCN(c4cnc(N5C6CCC5CN(c5cc(-c7ccccc7O)nnc5N)C6)nc4)CC3)cc21 (stereo not shown) [I-285] |  |  | > 90 | < 100 | > 90 | < 100 | > 90 | < 100
Cn1c(=O)n(C2CCC(=O)NC2=O)c2ccc(C3CCC(N4CCC(c5cnc(N6C7CCC6CN(c6cc(-c8ccccc8O)nnc6N)C7)nc5)CC4)CC3)cc21 (stereo not shown) [I-290] |  |  | > 90 | < 100 | > 90 | < 100 | > 90 | < 100
Cn1c(=O)n(C2CCC(=O)NC2=O)c2ccc([C@H]3CC[C@H](N4CCC(c5cnc(N6C7CCC6CN(c6cc(-c8ccccc8O)nnc6N)C7)nc5)CC4)CC3)cc21 (stereo partly shown) [I-291] |  | < 100 | > 90 | < 100 | > 90 | < 100 |  | 
Cc1ncsc1-c1ccc(CNC(=O)[C@@H]2C[C@@H](O)CN2C(=O)[C@@H](NC(=O)N2CCC(c3cnc(N4C5CCC4CN(c4cc(-c6ccccc6O)nnc4N)C5)nc3)CC2)C(C)(C)C)cc1 [I-448] |  |  | > 90 | 100 to 500 | > 90 | < 100 | 70 to 90 | 100 to 500
Cc1ncsc1-c1ccc(CNC(=O)[C@@H]2C[C@@H](O)CN2C(=O)[C@@H](NC(=O)CCN2CCC(c3cnc(N4C5CCC4CN(c4cc(-c6ccccc6O)nnc4N)C5)nc3)CC2)C(C)(C)C)cc1 [I-449] |  |  | < 50 | > 1000 | < 50 | 100 to 500 | < 50 | 100 to 500
Cc1ncsc1-c1ccc(CNC(=O)[C@@H]2C[C@@H](O)CN2C(=O)[C@@H](NC(=O)CN(C)Cc2ccc(N3CCN(c4cc(-c5ccccc5O)nnc4N)CC3)cc2)C(C)(C)C)cc1 [I-462] |  |  | 70 to 90 | 501 to 1000 | < 50 | > 1000 | 70 to 90 | 501 to 1000
Cc1ncsc1-c1ccc(CNC(=O)[C@@H]2C[C@@H](O)CN2C(=O)[C@@H](NC(=O)CN(C)CC#Cc2cnc(N3C4CCC3CN(c3cc(-c5ccccc5O)nnc3N)C4)nc2)C(C)(C)C)cc1 [I-495] |  |  | 70 to 90 | 100 to 500 | > 90 | < 100 | 70 to 90 | 100 to 500
Nc1nnc(-c2ccccc2O)cc1N1CC2CCC(C1)N2c1ncc(C2CCN(CCCNC(=O)COc3ccc4c(c3)CCCN4C(=O)CCl)CC2)cn1 [I-523, N-[3-[4-[2-[3-[3-amino-6-(2-hydroxyphenyl)pyridazin-4-yl]-3,8-diazabicyclo[3.2.1]octan-8-yl]pyrimidin-5-yl]-1-piperidyl]propyl]-2-[[1-(2-chloroacetyl)-3,4-dihydro-2H-quinolin-6-yl]oxy]acetamide] |  |  | < 50 | > 1000 | > 90 | > 1000 |  | 
Nc1nnc(-c2ccccc2O)cc1N1CC2CCC(C1)N2c1ncc(C2CCN(CCCCCNC(=O)COc3ccc4c(c3)CCCN4C(=O)CCl)CC2)cn1 [I-524] |  |  | < 50 | > 1000 | 70 to 90 | > 1000 |  | 
Nc1nnc(-c2ccccc2O)cc1N1CC2CCC(C1)N2c1ncc(C2CCN(CCCCCCCCCNC(=O)COc3ccc4c(c3)CCCN4C(=O)CCl)CC2)cn1 [I-525] |  |  | < 50 | > 1000 | 50 to 70 | > 1000 |  | 
NCC#Cc1nccc(N2C3CCC2CN(c2cc(-c4ccccc4O)nnc2N)C3)n1 [I-534, 2-[6-amino-5-[8-[2-(3-aminoprop-1-ynyl)pyrimidin-4-yl]-3,8-diazabicyclo[3.2.1]octan-3-yl]pyridazin-3-yl]phenol] |  |  | < 50 | > 1000 | 70 to 90 | > 1000 | > 90 | 100 to 500
CC(C)(C)[C@H](NC(=O)[C@H]1CC2(C1)C[C@H](N1CCC(c3cnc(N4C5CCC4CN(c4cc(-c6ccccc6O)nnc4N)C5)nc3)CC1)C2)C(=O)N1C[C@H](O)C[C@H]1C(=O)NOc1ccc(-c2ccccc2F)cc1 (stereo partly drawn) [I-537, (2S,4R)-1-[(2S)-2-[[2-[4-[2-[3-[3-amino-6-(2-hydroxyphenyl)pyridazin-4-yl]-3,8-diazabicyclo[3.2.1]octan-8-yl]pyrimidin-5-yl]-1-piperidyl]spiro[3.3]heptane-6-carbonyl]amino]-3,3-dimethyl-butanoyl]-N-[4-(2-fluorophenyl)phenoxy]-4-hydroxy-pyrrolidine-2-carboxamide] |  | > 1000 |  | > 1000 |  |  |  | 
